Reference: patent US12251383B2, “Methods and compositions for KRAS inhibitors” (The Board of Regents of the University of Texas System, priority 2019, dated 2025)
“Also recorded” adds a separate entry of the source.

Assays:
[1] = test system: H1975 (KRAS^WT) lung cancer cells; assay: Cell proliferation (CyQuant), H1975; assay type: cell-based; conditions: 72 h
Protocol: Cell proliferation. Potential effect of the ligands on cancer cell proliferation was tested in three lung cancer cells: SKLU-1, H1975 and H522. Cells were plated at ˜1,000 cell per well in a 96-well plate and maintained in full serum media with or without compound at 37° C. for 72 h changing the media with the compound every 24 h. Media with compound was prepared by serial dilution at concentrations indicated. Then cells were washed with PBS and frozen at −80° C. for a minimum of 24 h. Plates were thawed and CyQuant™ dye (in lysis buffer provided in the CyQuant™ cell proliferation assay kit, Invitrogen™) was added, and after a five-minute incubation, fluorescence (excitation: 480 nm emission: 520 nm) was measured with a Tecan Infinite M200 plate reader.

[2] = molecular target: KRAS^G12D in the GTP state (Homo sapiens, UniProt P01116, G12D); assay: MST binding, GTP-state KRAS G12D
Sequence of KRAS^G12D in the GTP state (P01116 1-188 isoform P01116-2 G12D): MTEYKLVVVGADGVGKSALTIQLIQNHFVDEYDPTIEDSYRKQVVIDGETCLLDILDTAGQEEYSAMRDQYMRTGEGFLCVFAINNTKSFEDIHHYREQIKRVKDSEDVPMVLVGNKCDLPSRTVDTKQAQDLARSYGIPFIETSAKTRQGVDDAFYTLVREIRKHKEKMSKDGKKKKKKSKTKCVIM
Text: (§1) FIGS. 1A-1D show representative data for the predicted binding mode and measured affinity of disclosed compound 11 to KRAS. (FIG. 1A) Structure of the catalytic domain of KRAS used for the virtual screening. Lobe1 (residues 1-86) and lobe2 (residues 87-166) are highlighted in different colors, as well as switches 1 (residues 30-40) and 2 (residues 60-75). The location of the target allosteric pocket p1 is indicated. (FIG. 1B) Chemical structure of compound 11. (FIG. 1C) Predicted binding pose of compound 11, with the key residues that make polar or vdW contacts with the ligand labeled. (FIG. 1D) Microscale thermophoresis (MST) experiments indicating direct binding of compound 11 to KRAS, along with dissociation constants (KD) derived from the curves. Changes in fluorescence upon titration of […] KRAS with increasing concentration of compound are shown: KRAS^WT (red), KRAS^G12C (green), KRAS^G12D (purple) and KRAS^Q61M (blue), each bound to the non-hydrolyzable GTP analogue, guanylyl imidodiphosphate (GNP). The same experiments indicated no binding to GDP-bound KRAS^G12D and KRAS^WT as well as Rap1B, which was used as control. […]

GTPKRAS^WT = GTPKRAS^WT (Homo sapiens, UniProt P01116); assay: Microscale thermophoresis (MST) binding, GTP-state (GNP-bound) KRAS WT
Sequence of GTPKRAS^WT (P01116 1-188 isoform P01116-2): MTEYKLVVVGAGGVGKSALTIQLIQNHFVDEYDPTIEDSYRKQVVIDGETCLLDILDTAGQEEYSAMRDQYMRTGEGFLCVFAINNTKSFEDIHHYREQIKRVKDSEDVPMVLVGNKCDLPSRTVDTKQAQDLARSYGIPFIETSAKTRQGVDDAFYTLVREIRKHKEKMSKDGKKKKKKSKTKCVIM
Text: as §1

KRAS^G12V = assay: Cell signaling (Western) in BHK cells expressing KRAS G12V; assay type: cell-based, hamster
Protocol: Cell signaling. The inhibitory potential of compounds was tested in monoclonal Baby Hamster Kidney (BHK) cell lines stably expressing monomeric green fluorescence protein (mGFP)-tagged KRAS^G12D, K-Ras^G12V and HRAS^G12V. Cells were cultured in Dulbecco's Modified Eagle Medium (DMEM, Hyclone) supplemented with 10% v/v bovine calf serum and incubated with compound or vehicle (DMSO) for 3 h without serum. Cells were then harvested in lysis buffer (50 mM Tris (pH 7.5), 75 mM NaCl, 25 mM NaF, 5 mM MgCl2, 5 mM EGTA, 1 mM dithiothreitol, 100 μM NaVO4, 1% Nonidet P40 plus protease inhibitors) and subjected to Western analysis controlling protein loading by BCA (bicinchoninic acid) assay. Lysates were resolved with Bio-Rad polyacrylamide TGX 10% gel, transferred to polyvinylidene fluoride (PVDF) membrane and immunoblotted using pan-AKT (2920S), GFP (2956S), pAKT^S473 (4060L), p-cRaf^S338 (9427S), p-ERK^T202/Y204 (4370L), ERK1/2 (4695S) or β-actin antibodies (Cell Signaling Technology). IC50 values were calculated with Prism 4-parameter fit.

[3] = molecular target: KRAS^G12C in the GTP state (Homo sapiens, UniProt P01116, G12C); assay: MST binding, GTP-state KRAS G12C
Sequence of KRAS^G12C in the GTP state (P01116 1-188 isoform P01116-2 G12C): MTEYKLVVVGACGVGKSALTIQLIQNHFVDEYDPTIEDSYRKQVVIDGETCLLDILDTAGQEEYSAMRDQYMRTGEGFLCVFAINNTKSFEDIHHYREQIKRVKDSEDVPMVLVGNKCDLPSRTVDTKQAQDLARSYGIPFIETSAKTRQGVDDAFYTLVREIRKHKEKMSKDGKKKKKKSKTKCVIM
Text: as §1

[4] = Solubility in DMSO and common solvents; assay type: physicochemical; conditions: DMSO

| SMILES | sensitivity of proliferation [1] | Kd [2] [nM] | Kd (GTPKRAS^WT) [nM] | effect on p-ERK levels (KRAS^G12V) | effect on p-cRaf levels (KRAS^G12V) | Kd [3] [nM] | solubility [4] |
| --- | --- | --- | --- | --- | --- | --- | --- |
| Cc1nn2c(N3CCN(CCO)CC3)cc(-c3ccccc3)nc2c1-c1ccccc1 [Compound 11, 2-[4-(8-methyl-3,9-diphenyl-2,6,7-triazabicyclo[4.3.0]nona-2,4,7,9-tetraen-5-yl)piperazin-1-yl]ethanol] | sensitive | 400 to 700 | ~300 | dose-dependently reduced; also recorded: dose-dependently decreases | dose-dependently reduced; also recorded: dose-dependently decreases | 400 to 700 |  |
| Cc1cc(N2CCN(CCO)CC2)n2nc(C)c(-c3ccccc3)c2n1 [Compound 13] |  |  |  |  |  |  | readily soluble |
